The target in assay [1] is Serine/threonine-protein kinase B-raf (Homo sapiens) (UniProt P15056). As to the kind of experiment: Inhibition of BRAF labeling at conserved Lys2 (DLKSNNIFLHEDLTVK) in human PBMC at 0.1 uM.
The target of assay [2] is Serine/threonine-protein kinase TBK1 (Homo sapiens) (UniProt Q9UHD2). In words: Inhibition of TBK1 conserved Lys2 (DIKPGNIMR) in human PBMC at 0.1 uM.
In assay [3] the target is Serine/threonine-protein kinase Chk2 (Homo sapiens) (UniProt O96017). As to the kind of experiment: Inhibition of CHK2 labeling at conserved Lys1 (VAIKIISK) in human PBMC at 1 uM.
The target of assay [4] is Activated CDC42 kinase 1 (Homo sapiens) (UniProt Q07912). In words: Inhibition of ACK labeling at ATP binding site (TVSVAVKCLKPDVLSQPEAMDDFIR) in human PBMC at 1 uM.
The target of assay [5] is T1, Phosphatidylinositol 4,5-bisphosphate 3-kinase catalytic subunit delta isoform (Homo sapiens) (UniProt O00329).
T1 sequence (whole entry): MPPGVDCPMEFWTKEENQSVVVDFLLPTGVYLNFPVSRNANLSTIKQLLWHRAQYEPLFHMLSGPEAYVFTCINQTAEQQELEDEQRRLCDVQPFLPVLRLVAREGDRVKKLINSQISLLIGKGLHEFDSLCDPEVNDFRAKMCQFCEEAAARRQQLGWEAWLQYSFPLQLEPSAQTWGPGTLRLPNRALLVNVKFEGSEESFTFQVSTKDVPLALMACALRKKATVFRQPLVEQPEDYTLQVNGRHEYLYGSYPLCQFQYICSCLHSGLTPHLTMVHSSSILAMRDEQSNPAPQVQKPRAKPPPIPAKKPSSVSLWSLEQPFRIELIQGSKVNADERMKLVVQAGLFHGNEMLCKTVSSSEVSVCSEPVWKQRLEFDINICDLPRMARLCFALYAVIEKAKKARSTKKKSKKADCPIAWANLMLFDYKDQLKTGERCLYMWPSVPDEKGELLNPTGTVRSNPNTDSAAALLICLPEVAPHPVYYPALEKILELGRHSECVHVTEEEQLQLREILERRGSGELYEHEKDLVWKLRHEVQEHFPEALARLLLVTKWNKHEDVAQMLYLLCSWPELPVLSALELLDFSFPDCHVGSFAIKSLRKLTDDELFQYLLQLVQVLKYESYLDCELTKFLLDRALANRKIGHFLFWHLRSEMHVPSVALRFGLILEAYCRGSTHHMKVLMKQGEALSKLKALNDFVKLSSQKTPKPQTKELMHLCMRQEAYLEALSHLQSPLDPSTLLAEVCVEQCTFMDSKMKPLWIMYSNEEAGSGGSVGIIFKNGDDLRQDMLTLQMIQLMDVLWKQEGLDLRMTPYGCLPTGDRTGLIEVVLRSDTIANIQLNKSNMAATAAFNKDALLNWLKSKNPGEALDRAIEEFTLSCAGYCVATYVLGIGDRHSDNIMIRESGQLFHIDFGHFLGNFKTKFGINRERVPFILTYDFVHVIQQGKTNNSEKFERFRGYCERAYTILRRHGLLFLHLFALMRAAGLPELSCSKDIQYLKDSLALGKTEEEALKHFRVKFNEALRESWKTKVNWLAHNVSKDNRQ
In words: Inhibition of PIK3CD ATP binding site (VNWLAHNVSKDNRQ) in human PBMC at 0.1 uM.

Assay [6] has as its target Mitogen-activated protein kinase 8 (Homo sapiens) (UniProt P45983). In words: Inhibition of JNK1 conserved Lys2 (DLKPSNIVVK) in human PBMC at 0.1 uM.
The target in assay [7] is Ribosomal protein S6 kinase alpha-3 (Homo sapiens) (UniProt P51812). In words: Inhibition of RSK2 domain1 ATP binding site (VLGQGSFGKVFLVK) in human PBMC at 0.1 uM.
For assay [8], the target named is Calcium/calmodulin-dependent protein kinase type II subunit gamma (Homo sapiens) (UniProt Q13555). In words: Inhibition of CaMK2g labeling at conserved Lys2 (DLKPENLLLASK) in human PBMC at 0.1 uM.
The target of assay [9] is T2, STE20-related kinase adapter protein alpha (Homo sapiens) (UniProt Q7RTN6).
T2 sequence (whole entry): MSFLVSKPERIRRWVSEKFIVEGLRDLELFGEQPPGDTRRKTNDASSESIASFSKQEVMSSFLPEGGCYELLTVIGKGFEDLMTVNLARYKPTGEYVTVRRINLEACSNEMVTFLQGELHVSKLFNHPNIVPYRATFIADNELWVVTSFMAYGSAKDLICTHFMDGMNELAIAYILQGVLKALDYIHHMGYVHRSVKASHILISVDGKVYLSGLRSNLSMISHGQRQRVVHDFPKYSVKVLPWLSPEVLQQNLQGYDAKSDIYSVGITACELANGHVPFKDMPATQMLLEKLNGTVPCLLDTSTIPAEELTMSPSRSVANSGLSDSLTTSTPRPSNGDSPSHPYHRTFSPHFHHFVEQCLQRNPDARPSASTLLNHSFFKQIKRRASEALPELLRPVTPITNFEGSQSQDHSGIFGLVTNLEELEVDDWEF
As to the kind of experiment: Inhibition of STLK5 activation loop (YSVKVLPWLSPEVLQQNLQGYDAK) in human PBMC at 0.1 uM.

The source of these data is ChEMBL document CHEMBL4043168, “The design and SAR of a novel series of 2-aminopyridine based LRRK2 inhibitors” (Bioorg Med Chem Lett, 2017).

As usually defined, the inhibition is the relative decrease from the control value, in per cent.

Sequence of Serine/threonine-protein kinase B-raf (Homo sapiens) (P15056 whole entry): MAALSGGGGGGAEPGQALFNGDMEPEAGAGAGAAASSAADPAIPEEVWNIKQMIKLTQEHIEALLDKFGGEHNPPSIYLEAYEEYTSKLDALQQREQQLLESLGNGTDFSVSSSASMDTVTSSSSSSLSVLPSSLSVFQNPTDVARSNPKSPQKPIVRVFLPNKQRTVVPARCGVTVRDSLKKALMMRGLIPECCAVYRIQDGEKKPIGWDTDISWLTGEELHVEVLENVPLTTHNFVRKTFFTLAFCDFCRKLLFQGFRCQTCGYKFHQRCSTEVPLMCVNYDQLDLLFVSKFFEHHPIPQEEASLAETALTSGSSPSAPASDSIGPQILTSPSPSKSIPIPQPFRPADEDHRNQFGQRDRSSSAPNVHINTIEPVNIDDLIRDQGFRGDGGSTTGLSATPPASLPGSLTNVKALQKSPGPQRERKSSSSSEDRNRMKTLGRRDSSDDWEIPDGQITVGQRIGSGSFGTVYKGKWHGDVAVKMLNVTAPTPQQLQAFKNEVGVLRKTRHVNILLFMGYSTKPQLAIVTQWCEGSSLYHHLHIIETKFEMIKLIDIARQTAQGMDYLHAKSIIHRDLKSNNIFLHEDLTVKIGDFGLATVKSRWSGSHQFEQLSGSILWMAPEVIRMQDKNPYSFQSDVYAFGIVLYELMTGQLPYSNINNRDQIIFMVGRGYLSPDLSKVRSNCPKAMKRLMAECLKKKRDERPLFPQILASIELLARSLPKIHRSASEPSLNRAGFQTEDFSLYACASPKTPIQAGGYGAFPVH
Sequence of Mitogen-activated protein kinase 8 (Homo sapiens) (P45983 whole entry, the tested form may be a part): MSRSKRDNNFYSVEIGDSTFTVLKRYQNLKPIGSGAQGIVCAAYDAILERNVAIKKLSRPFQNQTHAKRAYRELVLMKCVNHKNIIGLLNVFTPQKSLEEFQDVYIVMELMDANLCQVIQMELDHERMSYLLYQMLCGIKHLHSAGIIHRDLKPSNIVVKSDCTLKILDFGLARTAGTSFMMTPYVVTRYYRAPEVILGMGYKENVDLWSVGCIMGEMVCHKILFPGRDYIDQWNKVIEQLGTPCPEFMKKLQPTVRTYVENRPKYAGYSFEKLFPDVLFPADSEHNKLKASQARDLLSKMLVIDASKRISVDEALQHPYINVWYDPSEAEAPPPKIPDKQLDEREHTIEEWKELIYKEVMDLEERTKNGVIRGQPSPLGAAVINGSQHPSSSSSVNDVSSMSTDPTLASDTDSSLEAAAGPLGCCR
Sequence of Activated CDC42 kinase 1 (Homo sapiens) (Q07912 whole entry, looked up, canonical isoform): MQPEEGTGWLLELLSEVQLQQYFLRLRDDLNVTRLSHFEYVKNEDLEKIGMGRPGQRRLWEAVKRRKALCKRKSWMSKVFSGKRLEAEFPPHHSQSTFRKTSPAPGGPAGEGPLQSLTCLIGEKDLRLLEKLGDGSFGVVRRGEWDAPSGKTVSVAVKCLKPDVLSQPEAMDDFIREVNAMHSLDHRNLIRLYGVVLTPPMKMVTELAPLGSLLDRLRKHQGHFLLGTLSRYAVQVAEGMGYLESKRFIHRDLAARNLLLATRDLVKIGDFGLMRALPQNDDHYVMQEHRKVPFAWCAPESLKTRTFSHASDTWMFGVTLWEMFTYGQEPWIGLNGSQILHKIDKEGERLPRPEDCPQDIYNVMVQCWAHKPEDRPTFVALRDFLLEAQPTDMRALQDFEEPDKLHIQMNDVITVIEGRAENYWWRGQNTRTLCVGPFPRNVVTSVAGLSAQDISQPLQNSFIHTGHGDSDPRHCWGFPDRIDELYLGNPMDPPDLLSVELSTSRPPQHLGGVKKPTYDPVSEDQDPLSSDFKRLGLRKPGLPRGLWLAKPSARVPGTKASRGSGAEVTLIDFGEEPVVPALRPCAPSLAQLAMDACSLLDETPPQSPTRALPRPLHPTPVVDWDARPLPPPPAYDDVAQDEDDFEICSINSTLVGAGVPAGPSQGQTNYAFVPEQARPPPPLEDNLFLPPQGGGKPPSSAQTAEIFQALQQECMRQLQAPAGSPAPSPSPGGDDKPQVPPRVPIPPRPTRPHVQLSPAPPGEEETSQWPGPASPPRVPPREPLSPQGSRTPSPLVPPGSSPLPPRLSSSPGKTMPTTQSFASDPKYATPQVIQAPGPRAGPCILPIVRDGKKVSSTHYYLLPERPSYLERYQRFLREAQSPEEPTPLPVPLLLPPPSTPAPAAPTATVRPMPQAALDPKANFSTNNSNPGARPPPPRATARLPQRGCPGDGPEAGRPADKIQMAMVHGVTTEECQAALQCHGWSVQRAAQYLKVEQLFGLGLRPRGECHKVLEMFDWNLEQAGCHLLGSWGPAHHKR
Sequence of Serine/threonine-protein kinase TBK1 (Homo sapiens) (Q9UHD2 whole entry): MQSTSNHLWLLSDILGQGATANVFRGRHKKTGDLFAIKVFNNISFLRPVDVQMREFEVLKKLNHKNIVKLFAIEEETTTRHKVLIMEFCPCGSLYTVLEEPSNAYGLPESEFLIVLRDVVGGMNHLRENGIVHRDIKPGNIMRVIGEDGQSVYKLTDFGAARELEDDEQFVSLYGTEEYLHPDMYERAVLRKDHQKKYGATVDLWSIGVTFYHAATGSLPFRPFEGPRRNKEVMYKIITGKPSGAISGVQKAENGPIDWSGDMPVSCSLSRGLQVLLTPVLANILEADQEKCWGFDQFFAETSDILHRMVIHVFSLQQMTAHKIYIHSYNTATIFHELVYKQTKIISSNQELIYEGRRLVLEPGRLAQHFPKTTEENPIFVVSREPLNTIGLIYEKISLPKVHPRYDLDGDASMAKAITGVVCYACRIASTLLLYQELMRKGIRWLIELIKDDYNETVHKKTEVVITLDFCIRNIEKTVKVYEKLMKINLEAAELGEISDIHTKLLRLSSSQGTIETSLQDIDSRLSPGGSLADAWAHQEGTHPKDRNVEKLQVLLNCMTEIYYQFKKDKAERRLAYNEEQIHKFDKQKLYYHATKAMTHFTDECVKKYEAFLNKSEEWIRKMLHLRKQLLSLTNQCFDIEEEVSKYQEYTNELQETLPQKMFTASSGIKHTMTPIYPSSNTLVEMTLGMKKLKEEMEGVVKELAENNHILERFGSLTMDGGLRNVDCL
Sequence of Serine/threonine-protein kinase Chk2 (Homo sapiens) (O96017 whole entry): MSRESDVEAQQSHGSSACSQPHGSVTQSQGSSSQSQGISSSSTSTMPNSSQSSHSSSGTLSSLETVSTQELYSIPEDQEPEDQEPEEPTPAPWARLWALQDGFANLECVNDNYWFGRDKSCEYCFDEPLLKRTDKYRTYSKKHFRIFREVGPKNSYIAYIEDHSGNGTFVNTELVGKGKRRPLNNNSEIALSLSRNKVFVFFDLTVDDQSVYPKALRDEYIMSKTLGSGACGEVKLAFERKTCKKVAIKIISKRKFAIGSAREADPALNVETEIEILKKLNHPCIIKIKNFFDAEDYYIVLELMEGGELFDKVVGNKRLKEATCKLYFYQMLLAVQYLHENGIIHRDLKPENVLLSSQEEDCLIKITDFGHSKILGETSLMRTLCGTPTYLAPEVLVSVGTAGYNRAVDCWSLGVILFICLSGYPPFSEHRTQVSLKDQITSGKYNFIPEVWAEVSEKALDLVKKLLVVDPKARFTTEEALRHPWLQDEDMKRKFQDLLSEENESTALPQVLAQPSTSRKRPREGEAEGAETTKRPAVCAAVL
Sequence of Ribosomal protein S6 kinase alpha-3 (Homo sapiens) (P51812 whole entry, the tested form may be a part): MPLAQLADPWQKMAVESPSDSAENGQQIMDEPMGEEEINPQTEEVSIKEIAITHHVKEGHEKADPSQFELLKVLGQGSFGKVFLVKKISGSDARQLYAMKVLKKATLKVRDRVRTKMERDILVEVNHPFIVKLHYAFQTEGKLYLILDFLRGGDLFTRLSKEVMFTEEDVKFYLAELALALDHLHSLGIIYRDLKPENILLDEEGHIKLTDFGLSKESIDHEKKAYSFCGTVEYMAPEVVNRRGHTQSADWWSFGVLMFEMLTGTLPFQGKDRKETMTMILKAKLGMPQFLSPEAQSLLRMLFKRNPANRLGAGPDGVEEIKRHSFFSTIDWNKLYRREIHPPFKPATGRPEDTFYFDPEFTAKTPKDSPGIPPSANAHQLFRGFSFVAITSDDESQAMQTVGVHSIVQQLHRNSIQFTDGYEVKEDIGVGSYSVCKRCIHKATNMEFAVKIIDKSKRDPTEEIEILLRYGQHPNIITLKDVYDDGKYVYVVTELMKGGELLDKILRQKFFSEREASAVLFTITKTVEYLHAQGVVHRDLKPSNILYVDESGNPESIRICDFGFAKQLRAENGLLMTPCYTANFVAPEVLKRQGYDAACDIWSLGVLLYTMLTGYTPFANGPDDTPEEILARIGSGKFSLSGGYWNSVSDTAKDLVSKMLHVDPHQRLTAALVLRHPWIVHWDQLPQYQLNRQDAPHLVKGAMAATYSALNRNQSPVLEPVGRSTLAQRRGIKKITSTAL
Sequence of Calcium/calmodulin-dependent protein kinase type II subunit gamma (Homo sapiens) (Q13555 whole entry): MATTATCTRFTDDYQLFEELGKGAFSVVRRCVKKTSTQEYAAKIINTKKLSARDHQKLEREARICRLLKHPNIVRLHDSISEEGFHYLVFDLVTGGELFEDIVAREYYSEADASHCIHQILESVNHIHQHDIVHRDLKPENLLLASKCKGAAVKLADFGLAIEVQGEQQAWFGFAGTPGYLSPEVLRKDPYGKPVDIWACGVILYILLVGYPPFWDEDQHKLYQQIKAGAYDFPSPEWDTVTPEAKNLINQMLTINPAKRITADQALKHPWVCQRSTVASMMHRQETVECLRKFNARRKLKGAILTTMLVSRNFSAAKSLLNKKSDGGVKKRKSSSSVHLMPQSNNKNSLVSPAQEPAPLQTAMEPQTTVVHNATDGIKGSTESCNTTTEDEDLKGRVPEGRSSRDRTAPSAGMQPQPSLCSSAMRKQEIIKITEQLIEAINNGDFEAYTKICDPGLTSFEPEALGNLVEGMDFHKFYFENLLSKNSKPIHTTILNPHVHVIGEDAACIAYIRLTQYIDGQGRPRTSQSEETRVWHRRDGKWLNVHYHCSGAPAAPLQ

Take `CC(C)n1cc(-c2cc(-c3ccc(CN4CCOCC4)cc3)cnc2N)nn1`: the inhibition in [1] was 12.5%; in assay [2], 21.7%; in assay [3], 9.1%; in assay [4], -5.7%; in assay [5] it was 0.5%; in assay [6] it was 25.1%. Besides, the inhibition in assay [7] is 3.1%; in assay [8] it was -7.5%; in [9], -9.8%.
